Measured values from US4458076A, “3-(4-Piperidinyl)-1,2-benzisothiazoles” (Hoechst-Roussel Pharmaceuticals, priority 1983, dated 1984).
Where two headings read alike, the source gives them in different places.

Tests used:
[1] = tested on: phenyl-p-quinone writhing; assay: analgetic activity in the phenyl-p-quinone writhing assay; type: in vivo; conditions: Mus musculus, sc; subcutaneous dose effecting an approximately 50% inhibition of writhing in mice
Source text: 3-(4-piperidinyl)-1,2-benzisothiazoles of the present invention are useful as analgetics due to their ability to alleviate pain in mammals. […] Exptl. Biol Med., 95 729 (1957)]. Thus, for instance, the subcutaneous dose effecting an approximately 50% inhibition of writhing (ED50) in mice produced in this assay is as shown in Table 2.

[2] = tested on: apomorphine-induced climbing; assay: antipsychotic activity in the climbing mice assay (apomorphine-induced climbing); type: in vivo, CK-1 male mice; conditions: Mus musculus, ip, inhibition of climbing, compound intraperitoneally 30 minutes prior to apomorphine 1.5 mg/kg subcutaneously, readings at 10, 20 and 30 minutes, linear regression
Description: The subject CK-1 male mice (23-27 grams) are group-housed under standard laboratory conditions. The mice are individually placed in wire mesh stick cages (4"×4" by 10") and are allowed one hour for adaptation and exploration of the new environment.
For evaluation of climbing, 3 readings are taken at 10, 20 and 30 minutes after apomorphine administration according to the following scale: […]
Mice consistently climbing before the injection of apormorphine will be discarded.
With full-developed apomorphine climbing, the animals are hanging on to the cage walls, rather motionless, over longer periods of time. By contrast, climbs due to mere motor stimulation usually only last a few seconds.

| SMILES | ED50 [1] | ED50 [2] | ED50 ([2]; read-out: ANT[…] (ED50 mg/kg)) |
| --- | --- | --- | --- |
| CN1CCC(c2nsc3ccccc23)CC1 [3-(1-Methyl-4-piperidinyl)-1,2-benzisothiazole] | 0.73 mg/kg |  |  |
| c1ccc2c(C3CCNCC3)nsc2c1 [3-(4-piperidinyl)-1,2-benzisothiazole] | 2.1 mg/kg |  |  |
| O=c1[nH]c2ccccc2n1CCCN1CCC(c2nsc3ccccc23)CC1 [3-[1-(1,3-Dihydro-2-oxo-2H-benzimidazol-1-ylpropyl)-4-piperidinyl]-1,2-benzisothiazole] |  | 0.32 mg/kg |  |
| Fc1ccc2c(CCCN3CCC(c4nsc5ccccc45)CC3)noc2c1 [3-[1-(6-Fluoro-1,2-benzisoxazole-3-propyl)-4-piperidinyl]-1,2-benzisothiazole] | 0.3 mg/kg | 0.17 mg/kg |  |
| c1ccc2c(C3CCN(CC4CC4)CC3)nsc2c1 [3-{1-(cyclopropylmethyl)-4-piperidinyl}-1,2-benzisothiazole] | 0.07 mg/kg | 5.8 mg/kg |  |
| Fc1ccc(C(CCCN2CCC(c3nsc4ccccc34)CC2)c2ccc(F)cc2)cc1 [3-{1-[4,4-bis-(4-Fluorophenyl)-1-butyl]-4-piperidinyl}-1,2-benzisothiazole] |  | 3.3 mg/kg |  |
| c1ccc(CCN2CCC(c3nsc4ccccc34)CC2)cc1 [3-{1-[Phenethyl]-4-piperidinyl}-1,2-benzisothiazole] | 0.2 mg/kg | 7 mg/kg |  |
| Cc1[nH]c2ccccc2c1CCCN1CCC(c2nsc3ccccc23)CC1 [3-{3-[4-(1,2-benzisothiazol-3-yl)piperidinyl]propyl}-2-methyl indole] |  | 0.17 mg/kg |  |
| O=C(CCCN1CCC(O)(c2ccc(Cl)cc2)CC1)c1ccc(F)cc1 [haloperidol, reference compound] |  |  | 0.11 mg/kg |
| CC(C)=CCN1CCC2(C)c3cc(O)ccc3CC1C2C (centres unmarked) [pentazocine, reference compound] | 1.3 mg/kg |  |  |
| CCC(=O)O[C@](Cc1ccccc1)(c1ccccc1)[C@H](C)CN(C)C [propoxyphene, reference compound] | 3.9 mg/kg |  |  |
